Measured values taken from US12570657B2, “Mesylate salts of heterocyclic cytokinins, compositions containing these derivatives and use thereof” (UNIVERZITA PALACKEHO V OLOMOUCI, priority 2020, dated 2026).
In brackets after ≈: the same amount, converted by molar mass. Where two headings read alike, the source gives them in different places.

Key:
NIH-3T3 = assay: In vitro cytotoxicity, Calcein AM assay, NIH-3T3; assay type: cell-based; conditions: Mus musculus, NIH3T3, 72 h, 3-day Calcein-AM assay
From the text: Because toxic compounds adversely affect cell metabolic processes, many standard cytotoxicity assays are based on measuring the rate of metabolism of various artificial substrates. The resulting product is then quantified, for example, by spectrometry. Assays can be easily modified for use in 96-well plates, A microtiter assay based on the quantification of Calcein AM metabolism was used to evaluate the cytotoxicity of cytokinins, for example meta-topolin, ortho-topolin, kinetin, BAP or its mesylate salts, but also a number of other cytokinin mesylate derivatives according to the invention. The test is widely used in drug screening programs and in chemosensitivity testing. In living cells, Calcein AM is enzymatically hydrolyzed and the accumulation of the resulting calcein is manifested by green fluorescence. The following cell lines—RPMI 8226 (multiple myeloma), CEM (T-lymphoblastic leukemia), K562 (chronic myeloid leukemia), HL-60 (promyelocytic, leukemia), MCF-7 (breast adenocarcinoma), HeLa (cervical cancer), G361 (malignant melanoma), HOS (human osteosarcoma) and BJ (human foreskin fibroblasts)—were obtained from the American Type Culture Collection (Manassas, VA, USA). These cells were maintained in standard DMEM or RPMI medium (Sigma, MO, USA) supplemented with heat-inactivated fetal bovine serum (10%) with 2 mM L-glutamine and penicillin-streptomycin (1%) under standard cell culture conditions (37° C., 5% CO2 in a humid environment) and subcultured two or three times a week using a standard trypsinization procedure. Approximately 10,000 cells in 80 μl of medium were seeded in a 96-well microtiter plate. After 12 hours of incubation, the compounds to be tested were added in 20 μl aliquots. Control cultures were treated with DMSO alone. […] Serial, 3-fold dilutions (six in total, peak concentrations in 166 μM incubations) of each compound were tested. After 72 hours of incubation, Calcein AM solution (Molecular Probes) was added to a final concentration of 1 μg/ml and the cells were incubated for another hour. Free calcein fluorescence was then quantified using a Fluoroscan Ascent fluorometer (Microsystems), and the percentage of surviving cells in each well was calculated by dividing the OD obtained from each cell by the exposed cells by the mean OD obtained from control wells×100%, Finally, IC50 values (concentration causing a 50% decrease in cellular esterase activity) were calculated for each compound generated from dose-response curves (Krys̆tof et al., 2005, Bioorg. Med. Chem. Lett. 12, 3283-3286). The IC50 values reported here are averages obtained from at least three independent experiments, where the individual replication values fell within 20% of the average. […]

[1] = Solubility in organic solvents (progressive solvent addition); assay type: physicochemical; conditions: organic solvent or mixture, thermodynamic from solid
Description: Solubility in organic solvents was measured using the following protocol. Approximately 25 mg portions of meta-topolin and crystalline meta-topolin mesylate salt were placed in 48 different vials, separately. 5 volume aliquots of each solvent were added progressively (repeatedly) to the vials. After each addition, the mixture was checked for dissolution and if no dissolution was visible, the procedure was continued until dissolution was observed, or until 50 volumes have been added.

[2] = Storage stability study of solid crystalline salt (XRPD, colour); assay type: physicochemical; conditions: sealed tube, 25° C., 60 days
Description: 50 mg sample of crystalline meta-topolin mesylate crystalline salt was placed in an eppendorf tube and sealed. The sample was kept at 25° C. for 60 days. No color change was noted during the storage period. XRPD of samples were taken after 60 days to investigate any solid form change.

[3] = Disproportionation stability study (water slurry, XRPD); assay type: physicochemical; conditions: slurried in distilled water ca. 48 hours
Description: A 50 mg sample of crystalline meta-topolin mesylate crystalline salt was slurried in 250 μL distilled water for ca. 48 hours and then checked by XRPD for disproportionation.

[4] = water; reported value; cited from earlier work
[5] = DMF, read-out: Solubility in DMF
[6] = DMSO, read-out: Solubility in DMSO
[7] = acetone, read-out: Solubility in aceton
[8] = acetonitrile, read-out: Solubility in acetonitrile
[9] = ethanol, read-out: Solubility in ethanol
[10] = heptane, read-out: Solubility in heptane
[11] = methanol, read-out: Solubility in methanol

SMILES | IC50 (NIH-3T3) | solubility [1, 5] | solubility [1, 6] | solubility [1, 7] | solubility [1, 8] | solubility [1, 9] | solubility [1, 10] | solubility [1, 11] | Storage stability (XRPD pattern and colour) [2] | Disproportionation (XRPD) [3] | aqueous solubility (reported) [4]
COc1cccc(CNc2ncnc3nc[nH]c23)c1 [3MeOBAP, 6-(3-methoxybenzylamino)purine] | > 167 µM | – | – | – | – | – | – | – | – | – | –
CS(=O)(=O)O.c1ccc(CNc2ncnc3nc[nH]c23)cc1 [BAP mesylate, 6-benzylaminopurine mesylate] | > 167 µM | – | – | – | – | – | – | – | – | – | –
CS(=O)(=O)O.Oc1cccc(CNc2ncnc3nc[nH]c23)c1 [mT mesylate, 6-(3-hydroxybenzylamino)purine mesylate] | – | 6000 µg/mL | 22000 µg/mL | 400 µg/mL | < 250 µg/mL | 400 µg/mL | < 100 µg/mL | 700 µg/mL | did not reveal any changes in XRPD spektra, or change in color | No signs of disproportionation were observed | –
Oc1cccc(CNc2ncnc3nc[nH]c23)c1 [meta-topolin (mT), 6-(3-hydroxybenzylamino)purine] | – | 6000 µg/mL (≈ 24.9 mM) | 24000 µg/mL (≈ 99.5 mM) | 400 µg/mL (≈ 1.66 mM) | < 250 µg/mL | 5000 µg/mL (≈ 20.7 mM) | < 100 µg/mL | 5000 µg/mL (≈ 20.7 mM) | – | – | < 250 µg/mL
